Values of other authors as cited in patent EP3744320A1, “PHAR[…] C[…]” (Alfred E. Tiefenbacher (GmbH & Co. KG), priority 2019, dated 2020).

SMILES: CN1CCc2nc(C(=O)N[C@@H]3C[C@@H](C(=O)N(C)C)CC[C@@H]3NC(=O)C(=O)Nc3ccc(Cl)cn3)sc2C1 [edoxaban, N'-(5-chloropyridin-2-yl)-N-[(1S,2R,4S)-4-(dimethylcarbamoyl)-2-[(5-methyl-6,7-dihydro-4H-[1,3]thiazolo[5,4-c]pyridine-2-carbonyl)amino]cyclohexyl]oxamide]
- time of peak plasma concentrations (administered in vivo): 1 to 2 h
- absolute bioavailability (in vivo): approximately 62%
- absorbed in the upper gastrointestinal tract (in vivo): approximately 85%
